Laboratory results: article PMC6677754, “In silico design and optimization of selective membranolytic anticancer peptides” (Scientific Reports, 2019)
Like-named read-outs stand apart in the source and are kept apart here. Peptide text beside a SMILES is read from it.

Experiments:
Assay type in all cases: cell-based, human
NCI-H322M = assay: NCI-60 screening; details: NCI-H322M (Lung); log GI50; 48 h, sulforhodamine B, 10^-4 to 10^-8 M
Description: (§1) NCI-60 screening procedure
(§2) The NCI-60 screening procedure was performed by the Developmental Therapeutics Program of the National Cancer Institute. The procedure was performed as previously described24 in 96-well microtiter plates. Each peptide was tested in a 5-concentration assay, starting at 10^-4 M and diluting 10-fold to the lowest 10^-8 M concentration. The peptides were incubated for 48 h and the cell concentration was assayed by using the sulforhodamine B assay25 and optical density measurements. The growth inhibition (GI50) value24, measures the growth inhibitory power of the drug agent. The GI50 value is the concentration of the test drug for which the condition in Eq. S1 is met, where T is the optical density of the test well after a 48-h exposure to the peptide, T0 the optical density before applying the peptide drug and C the control optical density of a well where no peptide was applied.

SW-620 = assay: NCI-60 screening; details: SW-620 (Colon); log GI50; 48 h, sulforhodamine B, 10^-4 to 10^-8 M
Description: as §1, §2

786-0 = assay: NCI-60 screening; details: 786-0 (Renal); log GI50; 48 h, sulforhodamine B, 10^-4 to 10^-8 M
Description: as §1, §2

MALME-3M = assay: NCI-60 screening; details: MALME-3M (Melanoma); log GI50; 48 h, sulforhodamine B, 10^-4 to 10^-8 M
Description: as §1, §2

RPMI-8226 = assay: NCI-60 screening; details: RPMI-8226 (Leukemia); log GI50; 48 h, sulforhodamine B, 10^-4 to 10^-8 M
Description: as §1, §2

A549/ATCC = assay: NCI-60 screening; details: A549/ATCC (Lung); log GI50; 48 h, sulforhodamine B, 10^-4 to 10^-8 M
Description: as §1, §2

ACHN = assay: NCI-60 screening; details: ACHN (Renal); log GI50; 48 h, sulforhodamine B, 10^-4 to 10^-8 M
Description: as §1, §2

SNB-19 = assay: NCI-60 screening; details: SNB-19 (CNS); log GI50; 48 h, sulforhodamine B, 10^-4 to 10^-8 M
Description: as §1, §2

MDA-MB-468 = assay: NCI-60 screening; details: MDA-MB-468 (Breast); log GI50; 48 h, sulforhodamine B, 10^-4 to 10^-8 M
Description: as §1, §2

SK-MEL-28 = assay: NCI-60 screening; details: SK-MEL-28 (Melanoma); log GI50; 48 h, sulforhodamine B, 10^-4 to 10^-8 M
Description: as §1, §2

HT29 = assay: NCI-60 screening; details: HT29 (Colon); log GI50; 48 h, sulforhodamine B, 10^-4 to 10^-8 M
Description: as §1, §2

HCC-2998 = assay: NCI-60 screening; details: HCC-2998 (Colon); log GI50; 48 h, sulforhodamine B, 10^-4 to 10^-8 M
Description: as §1, §2

EKVX = assay: NCI-60 screening; details: EKVX (Lung); log GI50; 48 h, sulforhodamine B, 10^-4 to 10^-8 M
Description: as §1, §2

SF-268 = assay: NCI-60 screening; details: SF-268 (CNS); log GI50; 48 h, sulforhodamine B, 10^-4 to 10^-8 M
Description: as §1, §2

[1] = system: A549 lung adenocarcinoma cell line; assay: Cell viability assay (MTT); details: MTT
How it was run: (§3)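 Viability by MTT: 10^4 cells/well exposed 24 h to 2-fold peptide dilutions from 100 μM in DMEM, then 1 h with 0.5 mg mL−1 MTT; absorbance at 540 nm relative to peptide-free medium as 100% survival. EC50 from a 3-parameter log-logistic fit.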

[2] = system: MCF7 breast adenocarcinoma cell line; assay: Cell viability assay (MTT)
How it was run: as §3

Row | Compound | Log GI (M) (NCI-H322M) | Log GI (M) (SW-620) | Log GI (M) (786-0) | Log GI (M) (MALME-3M) | Log GI (M) (RPMI-8226) | Log GI (M) (A549/ATCC) | Log GI (M) (ACHN) | Log GI (M) (SNB-19) | Log GI (M) (MDA-MB-468) | Log GI (M) (SK-MEL-28) | Log GI (M) (HT29) | Log GI (M) (HCC-2998) | Log GI (M) (EKVX) | Log GI (M) (SF-268) | EC50 ([1]; Table S2, 24 h, mean ± sd, N = 2 independent measurements with six technical replicates each (Figs S6-S8), read-out: A549 EC50 /µM) [µM] | EC50 ([2]; Table S2, 24 h, mean ± sd, N = 2 independent measurements with six technical replicates each (Figs S6-S8)) [µM] | EC50 ([1]; 10^4 cells per well, 24 h with peptide, 2-fold dilution series from 100 µM in DMEM, absorbance 540 nm, mean ± std, N = 3, read-out: A549 EC50/µM) [µM] | EC50 ([2]; 10^4 cells per well, 24 h with peptide, 2-fold dilution series from 100 µM in DMEM, absorbance 540 nm, mean ± std, N = 3) [µM]
1 | CC[C@H](C)[C@H](NC(=O)[C@H](CCCCN)NC(=O)[C@H](CCCCN)NC(=O)[C@@H](NC(=O)[C@@H](NC(=O)[C@@H](N)Cc1c[nH]cn1)[C@@H](C)CC)[C@@H](C)CC)C(=O)N[C@@H](CCCNC(=N)N)C(=O)N[C@H](C(=O)N[C@@H](Cc1c[nH]c2ccccc12)C(=O)N[C@@H](Cc1ccc(O)cc1)C(=O)N[C@@H](CCCNC(=N)N)C(=O)N[C@@H](CCCCN)C(=O)N[C@@H](C)C(=O)N[C@@H](Cc1c[nH]c2ccccc12)C(=O)N[C@@H](Cc1c[nH]cn1)C(=O)N[C@H](C(=O)N[C@@H](CC(C)C)C(=O)NCC(=O)N[C@@H](CCCCN)C(=O)N[C@H](C(N)=O)C(C)C)C(C)C)[C@@H](C)O [Off2] (H-HIIKKIRTWYRKAWHVLGKV-NH2) | -5.30 | -5.02 | -5.47 | -5.64 | -5.06 | -5.26 | -4.88 | -4.74 | -5.19 | -5.58 | -4.83 | -5.41 | -5.63 | -5.46 | 17 ± 0.6 | 10 ± 2 | – | –
2 | CC[C@H](C)[C@H](NC(=O)[C@H](CCCNC(=N)N)NC(=O)[C@H](Cc1c[nH]c2ccccc12)NC(=O)[C@@H](NC(=O)[C@H](CCCCN)NC(=O)[C@H](CCCCN)NC(=O)[C@@H](NC(=O)[C@@H](NC(=O)[C@@H](NC(=O)[C@H](CCCCN)NC(=O)[C@H](Cc1ccccc1)NC(=O)[C@H](CCCCN)NC(=O)[C@H](CCCCN)NC(=O)[C@H](Cc1ccccc1)NC(=O)[C@@H](NC(=O)[C@@H](N)CCCCN)[C@@H](C)CC)[C@@H](C)O)[C@@H](C)CC)[C@@H](C)CC)C(C)C)C(=O)N[C@@H](Cc1ccccc1)C(=O)NCC(=O)N[C@@H](CCCNC(=N)N)C(=O)N[C@@H](Cc1ccccc1)C(N)=O [AmphiArc2] (H-KIFKKFKTIIKKVWRIFGRF-NH2) | -5.73 | -5.59 | -5.53 | -5.89 | -5.51 | -5.60 | -5.71 | -5.58 | -5.88 | -5.66 | -5.53 | -5.58 | -5.73 | -5.68 | – | – | 9.3 ± 1.5 | 5.7 ± 0.7
